Test results from US20120225933A1, “REGULATED EXPRESSION SYSTEMS” (priority 2009, published 2012).

Experiment: Toxicity of the inducer doxycycline in mice
Type: in vivo, BALB/c mice
Settings: 200 mg/kg dox i.p.; also seen in control mice without vector
Procedure: In view of the fact that the luciferase activity levels obtained in the induced state were very low, the decision was made to increase the dose of inducer. To this end, two consecutive doses of 100 and 200 mg/kg of dox were administered by i.p. route, separated by a 14-day period.
The luciferase activity in the hepatic area was measured at 24 hours post-induction. […] These symptoms were also observed in the control mice, those without a vector. The system's maximum rate of induction is reached at a dose of 100 mg/kg of dox, and is approximately 10-fold.

Structure (SMILES): C[C@H]1c2cccc(O)c2C(=O)C2=C(O)[C@]3(O)C(=O)C(C(N)=O)=C(O)[C@@H](N(C)C)[C@@H]3[C@@H](O)[C@@H]21 [dox, doxycycline]
- dox-mediated toxicity: several mice died
